Data as given in US20140275201A1, “IDENTIFICATION OF CANCER STEM CELL MARKERS AND USE OF […] TO TREAT CANCER” (BOARD OF REGENTS, THE UNIVERSITY OF TEXAS SYSTEM, priority 2013, published 2014).

Legend:
HMLER-FOXC2 cells [1] = experiment: Cell growth in monolayer cultures with sunitinib, HMLER-FOXC2; format: cell-based, human; conditions: sunitinib 10 μM (FIG. 7A), method says 2.5 μM, six days
Description: (§1) FIG. 7: Sunitinib inhibits the growth and metastasis of FOXC2-expressing tumors. FIG. 7A: Quantification of HMLER-Vector and HMLER-FOXC2 cell viability in the presence of sunitinib (10 μM) relative to vehicle (DMSO). N=3; error bars indicate SEM. *P<0.05. FIG. 7B: In vitro quantification of mammospheres formed by 1000 HMLER-FOXC2 and HMLER-Snail cells in the presence of sunitinib (10 μM) or DMSO. N=3; error bars indicate SEM. *P<0.05. FIG. 7C: Tumor volume of HMLER-FOXC2 cells injected into the mammary fat pad of NOD/SCID mice and treated with 40 mg/kg of sunitinib or vehicle (N=9) daily for the indicated number of days. Top line represents Vehicle; bottom line represents Sunitinib. […] FIGS. 7E and F: Thirty days following initiation of sunitinib or vehicle treatment, mice were euthanized and the organs, lung (FIG. 7E) and brain (FIG. 7F), were dissected and analyzed for metastatic tumor burden using bioluminescence imaging. The luminescent signal of tumor cells is represented as the total photon flux detected in each organ from individual mice with the bar indicating the average. ***P<0.001, **P<0.05 compared to the vehicle control group.
To determine the effects of sunitinib on cell growth, 2×10^5 cells were plated in a 6-well tissues culture dish. […] On the sixth day of treatment, viable cells per well was quantified using a Beckman-Coulter Vi-Cell Viability Analyzer.

HMLER-FOXC2 cells [2] = experiment: Mammosphere assay, HMLER-FOXC2; format: cell-based, human; conditions: HMLER-FOXC2, 1000 cells, sunitinib 10 μM, 7 days
Description: as §1
(§2) Mammosphere cultures were performed as described (Dontu et al., 2003), with the exception that culture medium contained 1% methylcellulose to reduce cell aggregation (Mani et al., 2008). […] Spheres were quantified after 7 days.

HMLER-Snail cells = experiment: Mammosphere assay, HMLER-Snail; format: cell-based, human; conditions: 1000 cells, sunitinib 10 μM, 7 days
Description: as §1, §2

[3] = test system: HMLE-Snail and SUM159 cells expressing shControl or shFOXC2; experiment: Mammosphere assay, cells expressing endogenous FOXC2; format: cell-based, human; conditions: cells expressing endogenous FOXC2 (shControl) versus shFOXC2, 1000 cells seeded, 7 days
Description: (§3) FIGS. 12A and B: Quantification of HMLE-Snail (FIG. 12A) and SUM159 (FIG. 12B) cell viability expressing either shControl or shFOXC2, following culture for 96 hours in increasing concentrations of sunitinib. Cell viability was assessed using an MTS assay. Top lines represent shFOXC2; bottom lines represent shControl. FIG. 12C: In vitro quantification of mammospheres formed by cells described above grown in the presence of sunitinib. Data represents the number of mammospheres formed per 1000 cells seeded after 7 days of culture. For each cell type, the left column represents Vehicle and the right column represents Sunitinib. Error bars indicate SEM. *P<0.05.
Mammosphere cultures were performed as described (Dontu et al., 2003), with the exception that culture medium contained 1% methylcellulose to reduce cell aggregation (Mani et al., 2008). One thousand cells were plated per well into 96-well plates and cultured for 7-10 days, with fresh medium replaced every 3 days. Following incubation, mammospheres were photographed and spheres with a diameter greater than 75 μm were counted. To test the effects of sunitinib, 1000 cells were plated in 96-well low attachment plate in 100 μl mammosphere media. At 24 hours and 96 hours, 100 μl of mammosphere media containing 10 μM sunitinib or vehicle control (DMSO) was added to each well. Spheres were quantified after 7 days.

[4] = test system: HMLE-Snail and SUM159 cells expressing shControl or shFOXC2; experiment: MTS cell viability assay, cells expressing endogenous FOXC2; format: cell-based, human; conditions: cells expressing endogenous FOXC2 (shControl) versus shFOXC2, 96 hours, increasing concentrations
Description: as §3

HMLER-FOXC2 tumors = experiment: Orthotopic HMLER-FOXC2 xenograft in the mammary fat-pad; format: in vivo, NOD/SCID mice
Description: FIG. 7: Sunitinib inhibits the growth and metastasis of FOXC2-expressing tumors. FIG. 7A: Quantification of HMLER-Vector and HMLER-FOXC2 cell viability in the presence of sunitinib (10 μM) relative to vehicle (DMSO). N=3; error bars indicate SEM. *P<0.05. FIG. 7B: In vitro quantification of mammospheres formed by 1000 HMLER-FOXC2 and HMLER-Snail cells in the presence of sunitinib (10 μM) or DMSO. N=3; error bars indicate SEM. *P<0.05. FIG. 7C: Tumor volume of HMLER-FOXC2 cells injected into the mammary fat pad of NOD/SCID mice and treated with 40 mg/kg of sunitinib or vehicle (N=9) daily for the indicated number of days. Top line represents Vehicle; bottom line represents Sunitinib. FIG. 7D: Event-free survival of mice with orthotopic HMLER-FOXC2 xenografts treated daily with sunitinib (40 mg/kg, N=7) or vehicle (N=10). Mice were euthanized once tumors reached 1.5 cm^3. Bottom line represents Vehicle; top line represents Sunitinib. FIGS. 7E and F: Thirty days following initiation of sunitinib or vehicle treatment, mice were euthanized and the organs, lung (FIG. 7E) and brain (FIG. 7F), were dissected and analyzed for metastatic tumor burden using bioluminescence imaging. The luminescent signal of tumor cells is represented as the total photon flux detected in each organ from individual mice with the bar indicating the average. ***P<0.001, **P<0.05 compared to the vehicle control group.
To ascertain the effects of sunitinib on HMLER-FOXC2 tumor growth and animal survival, 1×10^6 firefly luciferase-labeled HMLER-FOXC2 cells were injected into the mammary fat-pad of NOD/SCID mice as described above. After 24 hours, the mice were treated 5 days a week with 40 mg/kg sunitinib or vehicle (n=9) by oral gavage. Animals were sacrificed once the tumors reached 1.5 cm^3 or 30 days following injection and the dissected organs were immediately analyzed for luciferase activity.

SMILES: CCN(CC)CCNC(=O)c1c(C)[nH]c(/C=C2\C(=O)Nc3ccc(F)cc32)c1C [sunitinib]
- cell growth (cell viability relative to vehicle DMSO) (HMLER-FOXC2 cells [1]): specifically inhibit the cell growth
- decrease of mammosphere formation compared to vehicle (DMSO) treated cells (HMLER-FOXC2 cells [2]): > 8 fold
- decrease of mammosphere formation compared to vehicle (DMSO) treated cells (HMLER-Snail cells): > 20 fold
- sensitivity to sunitinib by reduction in mammosphere formation [3]: increased sensitivity
- sensitivity to sunitinib by MTS assay [4]: increased sensitivity
- primary tumor growth (tumor volume) (HMLER-FOXC2 tumors; 40 mg/kg sunitinib by oral gavage versus vehicle, NOD/SCID mice): reduced primary tumor growth
- metastatic burden in brain (photon counts, bioluminescence) (HMLER-FOXC2 tumors; 40 mg/kg sunitinib oral versus vehicle, thirty days after start of treatment, dissected brain): significantly reduced metastatic burden
- metastatic burden in lungs (photon counts, bioluminescence) (HMLER-FOXC2 tumors; 40 mg/kg sunitinib oral versus vehicle, thirty days after start of treatment, dissected lungs): significantly reduced metastatic burden
- event-free survival (HMLER-FOXC2 tumors; 40 mg/kg sunitinib oral versus vehicle, mice euthanized once tumors reached 1.5 cm^3): extended event-free survival
